Experiment: Kinetic study of ROS-mediated degradation of IR775S (fluorescence at 800 nm)
Format: physicochemical
Settings: presence of peroxynitrite (ONOO^−) and hypochlorite (ClO^−), 2 μM, 1×PBS pH=7.4
Method: FIGS. 26A and 26B illustrate a kinetic study of ROS-mediated degradation of 1R7755 by detecting its fluorescence decrease at 800 nm after addition of ROS.
FIG. 26B illustrates a time course of the fluorescence of 1R775S at 800 nm after addition of indicated ROS (FIG. 26B top: ONOO^−, ClO^−; FIG. 26B bottom: ^1O2 and H2O2) in 1×PBS (pH=7.4). [1R775]=1 μg/mL. [ROS]=2 μM.

CN1C(=CC=C2CCCC(C=CC3=[N+](C)c4ccccc4C3(C)C)=C2SCCC(=O)O)C(C)(C)c2ccccc21.[O-][Cl+3]([O-])([O-])[O-] [1R775S, 2-[4′-(β-carboxyethylthio)-7′-(1″,3″,3″-trimethylindolenine)-3′,5′-trimethyleneheptatrien-1-yl]-1,3,3-trimethylindolenium perchlorate]
degradation by ROS: nearly instant degradation

Reference: US20150031996A1, “SEMICONDUCTING POLYMER NANOPARTICLES AS PHOTOACOUSTIC MOLECULAR IMAGING PROBES” (The Board of Trustees of the Leland Stanford Junior …, priority 2013, published 2015)
